In patent publication US20070003531A1, “Methods for improving immunotherapy by enhancing survival of antigen-specific cytotoxic T lymphocytes” (University of Connecticut, priority 2005, published 2007):

What was measured:
[1] = system: MART-127-35 epitope specific human primary CTL; assay: AICD induction and quantitation in epitope specific primary CTL (tetramer/annexin V FACS); assay type: cell-based; settings: pre-incubation about 45 min, restimulation with MART-127-35 peptide pulsed T2 cells, kinase inhibitors 25 μM, z-VAD-fmk 100 μM, Fc chimeras 10 μg/ml
Protocol: FIG. 10. Effect of external death receptor blockade and MAP kinase inhibitors on AICD in the epitope specific CTLs upon secondary encounter of the cognate epitope. The CTLs were pre-incubated at optimal concentration for about 45 min. at about 37° C. with pan caspase inhibitor z-VAD-fmk (100 μM); human Fas/Fc chimera, human TNF-RI/Fc chimera, human TRAIL-RI/Fc chimera, human TRAIL-RII/Fc chimera and human IFN-γ RI/Fc chimeric proteins (10 μg/ml); p38 kinase inhibitor SB203580, JNK inhibitor anthra[1,9-cd]pyrazol-6(2H)-one (SP600125), […] inhibitor PD98059 (25 μM). Then the pretreated as well as untreated CTLs were incubated with T2 cells either alone or loaded with peptide. About 4 hours after secondary exposure cells were stained for determining: (A) Number of tetramer^+ cells out of the CD8^+ T cells [Top panel]; number of tetramer^+/Annexin V^+ and tetramer^+/Annexin^− populations [Bottom panel]. […] (B) Effect of the MAP kinase inhibitors on IFN-γ response by the effector cells.
AICD induction and quantitation. AICD in the human primary CTL primed and expanded specifically for melanoma epitope MART-127-35 was induced by re-exposure of the CTLs to MART-127-35 peptide (1 μg/ml) as reported previously. Staurosporine mediated death was induced by exposure of CTL to 1 μM staurosporine for 4 hr. Quantitation of AICD and the effects of various inhibitors on AICD of CTLs, were carried out by annexin-V staining followed by FACS analyses as reported previously.
In test whether or not the epitope specific primary CTLs undergo AICD, the activated CTLs were exposed to peptide [1 μg/ml] loaded T2 cells (Effector: Target=100) at different time points of the cultures. Thereafter, the evidence of apoptosis was determined by flow cytometry with triple color staining (CD8, MART-127-35/HLA-A2 tetramer and annexin V) at different time points (4-18 h). Experiments were carried out in triplicate wells and significance was calculated by One-way analysis of variance (ANOVA) using Sigma Stat statistical software, Chicago, Ill.
To evaluate the effect of various agents in modulating AICD, the CTLs were pre-incubated with various compounds at optimal concentration for 45 min. at 37° C. and then exposed to T2 cells alone or loaded with peptide.

Mart-1 primary CTLs = assay: Mitochondrial transmembrane potential (DiOC6 staining); assay type: cell-based, human; settings: induced by re-stimulation with cognate peptide; data not shown
Protocol: (§1) FIG. 12. Effect of antigen specific secondary stimulation on mitochondrial transmembrane membrane potential (Δψm), pro- and anti-apoptotic protein and expression of cell surface molecules. (A) Differential effect on membrane polarization in Mart-1 primary CTLs (top panel) vs. Jurkat T cells (bottom panel). CTLs were incubated with T2 cells either alone or loaded with peptide. After overnight secondary exposure cells were stained with Mart-1 tetramer/CD8 and DiOC6. Histogram represents the fluorescence of DiOC6 in the gated antigen specific tetramer^+ population (top panel). Jurkat T cells were also analyzed for modulation of membrane potential after TCR-driven stimulation (bottom panel). Values represent the mean±SD of fluorescence intensity triplicates from one out of three separate experiment. *p<0.001 (One Way ANOVA). […] (C) Expression of different cell surface receptors for survival or death signal in antigen specific population upon secondary stimulation. Values on left upper corner represent the geometric mean of the fluorescence intensity for that particular marker when stimulated with T2/MAGE-3271-279 while that on right upper corner represent the geometric mean of the fluorescence intensity when stimulated with T2/MART-127-35.

[2] = system: Bcl family proteins in CTL; assay: Western blot of Bcl family pro- and anti-apoptotic proteins in CTL after secondary stimulation; assay type: cell-based, human
Protocol: as §1
Washed cell pellets were lysed in RIPA buffer and a cytosolic fraction was prepared by spinning the lysate at 15,000 rpm. Proteins (20 μg/well) were separated on 15% SDS-PAGE, transferred onto nitrocellulose filters, probed with appropriate antibodies. Antibodies for Bcl-2, phospho Bcl-2, Bim, BCI-XL, Bax, Actin were purchased from Santa-Cruz Biotechnology, Santa-Cruz, Calif. Anti-Mcl-1 antibody was purchased from BD Pharmingen, Palo Alto, Calif. Blots were developed by HRP-tagged secondary antibody (Santa-Cruz Biotechnology, Santa-Cruz, Calif.) using a chemoluminescence kit (Amersham Biosciences, Buckinghamshire, U. K.).

[3] = system: MART-127-35 epitope specific primary CTL; assay: DNA fragmentation analysis (agarose gel electrophoresis); assay type: cell-based, human; settings: 1 μM staurosporine for 4 hr
Protocol: Standard 2% agarose gel-electrophoresis (panel i) and pulse field DNA gel electrophoresis (panel ii) of: CTL in steady state (C) and after restimulation by the cognate peptide (M1).
DNA fragmentation analysis. DNA fragmentation was assessed by measuring single stranded nick generation, using single stranded DNA nick specific antibody (Alexis Biochemicals, CA, USA) with flow-cytometry and immunofluorescence according to published protocols. Antibody-stained cells were counterstained with 0.1 μg/ml DAPI in PBS for 10 min. Agarose gel electrophoresis was used to detect small oligosomal DNA fragmentation and pulse field electrophoresis (Bio-Rad CHEF-DRIII) was used (6 V/cm, 20-60 sec pulse overnight) to detect large-scale DNA fragmentation.

[4] = system: PARP cleavage in Jurkat cells; assay: PARP cleavage in staurosporine treated Jurkat cells (immunoblot); assay type: cell-based, human
Protocol: FIG. 1. […] (A) Effect of the JNK inhibitor SP600125 on AICD in the MART-127-35 epitope specific CTL. Histogram represents FACS analysis of the percent of MART-127-35 epitope specific CTLs that were tetramer positive and annexin negative after restimulation with MAGE-3271-279 control peptide (M3) pulsed T2 cells or MART-127-35 peptide (M1) pulsed T2 cells either alone or re-stimulated after pre-incubation with JNK inhibitor SP600125, p38-kinase inhibitor SB203580, ERK1/2 inhibitor PD98059 or caspase-inhibitor z-VAD-fink. MAGE-3271-279. (B) JNK activation results in phosphorylation of c-Jun during AICD in CTL that is blocked by SP600125. Immunoblots show analyses of CTL extracts probed with anti-phosphor-c-Jun, anti-c-Jun, and anti-actin antibodies. […] (i) Jurkat cells were treated with PMA+ionomycin in the absence or presence of SP600125 and JNK activation (c-Jun phosphorylation) was assessed with anti-phospho-c-Jun antibody. […] (ii) Jurkat cells were treated with Staurosporine for 1 and 4 hrs in the absence (S) or presence of caspase inhibitor, z-VAD-fmk (CI), JNK inhibitor, SP600125 (SP) or ERK1/2 inhibitor PD98059 (PD) and cleavage of PARP was detected by immunoblotting, using actin as a loading control. […] Percent annexin positive cells in all samples were quantified by FACS analysis and shown below the blot […]

Jurkat cells = assay: Staurosporine-induced death of Jurkat cells (annexin FACS); assay type: cell-based, human; settings: annexin positive cells by FACS
Protocol: FIG. 1. […] (A) Effect of the JNK inhibitor SP600125 on AICD in the MART-127-35 epitope specific CTL. Histogram represents FACS analysis of the percent of MART-127-35 epitope specific CTLs that were tetramer positive and annexin negative after restimulation with MAGE-3271-279 control peptide (M3) pulsed T2 cells or MART-127-35 peptide (M1) pulsed T2 cells either alone or re-stimulated after pre-incubation with JNK inhibitor SP600125, p38-kinase inhibitor SB203580, ERK1/2 inhibitor PD98059 or caspase-inhibitor z-VAD-fink. MAGE-3271-279. (B) JNK activation results in phosphorylation of c-Jun during AICD in CTL that is blocked by SP600125. Immunoblots show analyses of CTL extracts probed with anti-phosphor-c-Jun, anti-c-Jun, and anti-actin antibodies. […] (i) Jurkat cells were treated with PMA+ionomycin in the absence or presence of SP600125 and JNK activation (c-Jun phosphorylation) was assessed with anti-phospho-c-Jun antibody. […] (ii) Jurkat cells were treated with Staurosporine for 1 and 4 hrs in the absence (S) or presence of caspase inhibitor, z-VAD-fmk (CI), JNK inhibitor, SP600125 (SP) or ERK1/2 inhibitor PD98059 (PD) and cleavage of PARP was detected by immunoblotting, using actin as a loading control. […] Percent annexin positive cells in all samples were quantified by FACS analysis and shown below the blot

Compound: COc1cccc(-c2cc(=O)c3ccccc3o2)c1N [PD98059]
- protection/rescue of CTL from AICD [1]: could not protect

Compound: C[S+]([O-])c1ccc(-c2nc(-c3ccncc3)c(-c3ccc(F)cc3)[nH]2)cc1 (centres unmarked) [SB203580]
- level of hyper polarization of mitochondrial transmembrane potential (Mart-1 primary CTLs): decreased
- protection/rescue of CTL from AICD [1]: could not protect
- BCI-XL expression [2]: non-selectively up regulated
- Bcl-2 expression [2]: non-selectively up regulated

Compound: CN[C@@H]1C[C@H]2O[C@@](C)([C@@H]1OC)n1c3ccccc3c3c4c(c5c6ccccc6n2c5c31)C(=O)NC4 [staurosporine]
- oligosomal DNA fragmentation [3]: clearly evident
- PARP cleavage ([4]; Jurkat cells treated with staurosporine (1 μM)): cleaved

Compound: z-VAD-fmk
- protection/rescue of CTL from AICD [1]: could not protect
- protection/rescue of CTL from AICD ([1]; listed as z-VAD-fink): did not prevent
- effect on PARP cleavage induced by staurosporine ([4]; Jurkat cells, z-VAD-fmk 100 μM, staurosporine 1 μM): blocked
- protection from staurosporine-induced death (Jurkat cells): protected
